Reference: ChEMBL document CHEMBL1240391, “High prevalence of ST131 isolates producing CTX-M-15 and CTX-M-14 among extended-spectrum-beta-lactamase-producing Escherichia coli isolates from Canada” (2010)

Legend:
Format in all cases: functional
Escherichia coli [1] = assay: Antimicrobial activity against Escherichia coli assessed as nonsusceptible isolates by CLSI method
Escherichia coli [2] = assay: Antimicrobial activity against CTX-M15/CTX-M14 ESBL producing Escherichia coli ST131 clonal complex isolate assessed as nonsusceptible isolates by CLSI method
Escherichia coli [3] = assay: Antimicrobial activity against ESBL producing Escherichia coli assessed as nonsusceptible isolates by CLSI method

Compound | Activity (Escherichia coli [1]) [%] | Activity (Escherichia coli [2]) [%] | Activity (Escherichia coli [3]) [%]
O=C1CN(/N=C/c2ccc([N+](=O)[O-])o2)C(=O)N1 [NITROFURANTOIN] | 8 | 4 | 12
NC[C@H]1O[C@H](O[C@H]2[C@H](O)[C@@H](O[C@H]3O[C@H](CO)[C@@H](O)[C@H](N)[C@H]3O)[C@H](N)C[C@@H]2N)[C@H](N)C[C@@H]1O [TOBRAMYCIN] | 69 | 93 | 49
NCC[C@H](O)C(=O)N[C@@H]1C[C@H](N)[C@@H](O[C@H]2O[C@H](CN)[C@@H](O)[C@H](O)[C@H]2O)[C@H](O)[C@H]1O[C@H]1O[C@H](CO)[C@@H](O)[C@H](N)[C@H]1O [AMIKACIN] | 39 | 45 | 35
GENTAMICIN | 50 | 67 | 35
